Data taken from PubChem BioAssay AID652152 (Johns Hopkins Ion Channel Center, 2013).
Calls of active or inactive are those of the source. How the calls were made is not given here.

Biological target: Potassium voltage-gated channel subfamily KQT member 2 (Rattus norvegicus) (UniProt O88943)
Experiment: KCNQ2 channel inhibitors, SAR follow-up, cell-based, automated electrophysiology (AID 652152)
Conditions: KCNQ2-expressing cells, automated patch-clamp current; for inhibition: at 30 µM (top of the series)

Sequence of Potassium voltage-gated channel subfamily KQT member 2 (Rattus norvegicus) (O88943 whole entry, looked up): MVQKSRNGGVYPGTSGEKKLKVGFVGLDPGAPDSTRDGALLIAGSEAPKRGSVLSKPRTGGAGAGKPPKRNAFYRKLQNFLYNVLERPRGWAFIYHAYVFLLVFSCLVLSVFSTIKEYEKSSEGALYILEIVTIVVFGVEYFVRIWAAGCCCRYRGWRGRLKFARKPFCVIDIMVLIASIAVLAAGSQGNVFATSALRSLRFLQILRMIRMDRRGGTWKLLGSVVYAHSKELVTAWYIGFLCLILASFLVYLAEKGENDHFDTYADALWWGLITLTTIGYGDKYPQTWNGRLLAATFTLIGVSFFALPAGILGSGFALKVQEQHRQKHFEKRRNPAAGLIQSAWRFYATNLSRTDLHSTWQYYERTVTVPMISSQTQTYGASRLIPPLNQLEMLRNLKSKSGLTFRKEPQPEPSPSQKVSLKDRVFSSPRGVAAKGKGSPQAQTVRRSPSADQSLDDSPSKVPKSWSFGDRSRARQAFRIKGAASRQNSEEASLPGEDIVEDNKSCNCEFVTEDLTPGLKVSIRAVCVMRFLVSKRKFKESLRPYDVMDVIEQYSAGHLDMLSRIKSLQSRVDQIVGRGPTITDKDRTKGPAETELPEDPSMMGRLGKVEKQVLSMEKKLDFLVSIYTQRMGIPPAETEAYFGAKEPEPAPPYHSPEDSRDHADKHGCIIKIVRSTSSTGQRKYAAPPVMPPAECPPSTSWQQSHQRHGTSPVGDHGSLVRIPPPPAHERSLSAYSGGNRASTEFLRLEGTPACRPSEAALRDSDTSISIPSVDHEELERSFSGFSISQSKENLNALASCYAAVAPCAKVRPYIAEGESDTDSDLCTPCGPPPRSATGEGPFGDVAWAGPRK

SMILES | inhibition | IC50 [nM]
CC[C@H](C(=O)Nc1ccc(N2CCN(c3cc(C(F)(F)F)ccn3)CC2)cc1)c1ccccc1 | inactive | –
CC[C@H](C(=O)Nc1ccc(N2CC[C@H](F)C2)cc1)c1ccccc1 | – | 120
CC[C@H](C(=O)Nc1ccc(N2CCCC(F)C2)cc1)c1ccccc1 (stereo not given in full) | inactive | –
CC[C@H](C(=O)Nc1ccccc1N1CC(c2ccc(Cl)cc2)C1)c1ccccc1 | – | 890
CC[C@H](C(=O)Nc1ccc(N2CCC(F)(F)CC2)cc1)c1ccccc1 | – | 750
CC[C@H](C(=O)Nc1ccccc1N1CC[C@H](F)C1)c1ccccc1 | – | 210
CC[C@H](C(=O)Nc1ccc(N2CC(c3ccc(Cl)cc3)C2)cc1)c1ccccc1 | inactive | –

Second part, the compound after the results:

inhibition | IC50 [nM] | SMILES
– | 21200 | CC[C@H](C(=O)Nc1ccccc1N1CCN(c2ccncc2C)CC1)c1ccccc1
– | 2800 | CC[C@H](C(=O)Nc1ccccc1N1CCC(F)(F)CC1)c1ccccc1
inactive | – | CC[C@H](C(=O)Nc1ccc(N2CCN(c3ccncc3C)CC2)cc1)c1ccccc1
